These results are taken from patent US20200215158A1, “Multifunctional, Self-Assembled Aptamer-Nanomedicine Compositions and Methods for treating Cancer” (The Methodist Hospital, priority 2018, published 2020).

The structures appear in SMILES notation.

For data set [1], the system named is Karpas 299 xenograft tumor. Briefly: Anticancer efficacy of Apt-NMed in vivo. The arrangement: species or system mouse. To be noted: post first dose treatment. As for the experimental part:
Mice NOD.Cg-Prkdc^scid Il2rg^tmlWjl/SzJ (NOD SCID), 4-6-weeks old, were used to develop xenograft tumor models by subcutaneously injecting 6×10^6 cultured CD30-expressing lymphoma cells (Karpas 299) (in 100 μL of PBS buffer) into mice on the back. Dorsal tumor nodules were allowed to grow to a volume of ˜4 mm^3 before treatment initiation. Tumor-bearing mice were randomly assigned to three groups (with six mice in each group) as follows: (i) group administered with 0.25 mg Apt-NMed carrying […] to each mouse; (ii) group administered 20 μg free DOX to each mouse, and (iii) untreated group. Drugs were injected through tail veins every other day, and the treatment was continued for four weeks. Tumor length and width were measured with calipers weekly for each mouse. Tumor volume was calculated using the following equation:
Tumor Volume=Length×Width^2×0.52
(§1) The body weight of each mouse was also measured weekly to monitor potential drug toxicity. Mice were euthanized when tumor volume exceeded 2,000 mm^3.

Data set [2] is described as follows: Body weight of tumor-bearing mice during treatment. Format: in vivo, mouse. The protocol:
as §1

For the compound `COc1cccc2c1C(=O)c1c(O)c3c(c(O)c1C2=O)C[C@@](O)(C(=O)CO)C[C@@H]3O[C@H]1C[C@H](N)[C@H](O)[C@H](C)O1` [free DOX, doxorubicin], in data set [1], the “day at which the last mouse died” value was 38 days. The compound also showed a body weight loss in data set [2] (day 35, 20 μg/mouse) of 20%. For the same compound, the “change in mice body weight” value in data set [2] (during treatment) is on record as “considerable decrease”.
